Counter-ions that a name gives are not always drawn. Like-named read-outs stand apart in the source and are kept apart here. Starred links: 1 amine or outer side, 2 acyl side, 3 side chain; linkers in the order of their positions; H or OH if unused. Non-standard residues stand in square brackets, D forms with d. Residues, ends and D or L forms follow the SMILES beside them. X1 = NCCCC[C@H](N)CN([C@@H](CCCCN)C(=O)[*:2])[*:1]; Tle = CC(C)(C)[C@H](N)C(=O)O
Biological target: T1, His6-AspH315–758 (human aspartate/asparagine-β-hydroxylase, AspH) (Homo sapiens, UniProt Q12797)
T1 construct: N-Terminally His6-tagged human AspH315–758 (His6-AspH315–758) was produced in E. coli BL21 (DE3) cells; made in house; host or cells: E. coli BL21 (DE3), pET-28a(+) vector
T1 sequence (Q12797 315-758): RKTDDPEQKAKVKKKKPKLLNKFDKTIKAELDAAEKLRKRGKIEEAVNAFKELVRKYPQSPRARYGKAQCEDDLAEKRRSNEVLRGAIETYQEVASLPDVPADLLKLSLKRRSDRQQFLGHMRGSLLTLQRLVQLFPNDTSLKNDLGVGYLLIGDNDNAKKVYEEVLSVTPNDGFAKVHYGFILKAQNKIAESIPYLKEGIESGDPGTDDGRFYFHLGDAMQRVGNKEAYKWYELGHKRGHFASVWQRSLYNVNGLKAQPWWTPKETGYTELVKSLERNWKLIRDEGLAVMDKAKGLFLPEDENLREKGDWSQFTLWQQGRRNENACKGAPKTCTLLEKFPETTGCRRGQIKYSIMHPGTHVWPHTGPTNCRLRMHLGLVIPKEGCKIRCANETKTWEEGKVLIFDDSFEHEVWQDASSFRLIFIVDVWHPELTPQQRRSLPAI
Assay: SPE-MS AspH inhibition assay (LOPAC screen at fixed 20 μM and IC50 dose-response), hydroxylation of cyclic peptide hFX-CP101–119
Format: biochemical
Conditions: for Plate 5 (% inhibition) / Plate 5 (% conversion): plate 5 (Pfitzer), test compounds at fixed 20 μM; for Plate 5 (% conversion): mean conversion DMSO 32.88

[1] = LOPAC Plate 4, compound at 20 uM
[2] = LOPAC Plate 4, compound at 20 uM, substrate conversion
[3] = LOPAC Plate 4, compound at 20 uM, read-out: % inhibition
[4] = LOPAC compound at 20uM, plate 3, conversion of substrate peptide
[5] = LOPAC compound at fixed 20 uM, plate 1, normalised to DMSO and 2,4-PDCA controls
[6] = LOPAC compound at fixed 20 uM, substrate conversion, plate 1

## Cn1c(=O)c(-c2c(Cl)cccc2Cl)cc2cnc(Nc3ccc(N4CCOCC4)cc3)nc21 [PD173952]
[1]
  % inhibition: -8.20%
[2]
  % conversion: 39.27%
  Plate 5 (% inhibition): 58.03%
  Plate 5 (% conversion): 16.57%

## O=C(NOCC1CC1)c1ccc(F)c(F)c1Nc1ccc(I)cc1Cl [PD184352]
  Plate 5 (% inhibition): 28.96%
  Plate 5 (% conversion): 26.46%

## COc1cccc(-c2cc(=O)c3ccccc3o2)c1N [PD 98,059]
  % conversion: 28.37%

## Cc1cccc(C(=O)NCN2CCN(c3ccccc3C#N)CC2)c1.O=C(O)/C=C\C(=O)O [PD 168,077 maleate]
[1]
  % inhibition: 1.73%
[2]
  % conversion: 35.88%

## CCOC(=O)[C@H](CC(C)C)NC(=O)[C@@H](NC(=O)[C@H](Cc1c[nH]c2ccccc12)NC(=O)[C@@H]1CCCN1C(=O)[C@H](CCCCN)NC[C@@H](N)CCCCN)C(C)(C)C [PD-149163] (H-[X1]PW[Tle]L-OEt)
  Plate 5 (% inhibition): -16.72%
  Plate 5 (% conversion): 42.01%

## COc1ccc(C2(O)OC(=O)C(c3ccc4c(c3)OCO4)=C2Cc2cc(OC)c(OC)c(OC)c2)cc1 (stereo not drawn) [PD-156707]
[2]
  % conversion: 36.15%
[3]
  inhibition at 20 µM: 0.95%
  Plate 5 (% inhibition): 18.88%
  Plate 5 (% conversion): 29.89%

## CCN(CC)CCCCNc1ncc2cc(-c3c(Cl)cccc3Cl)c(NC(=O)NC(C)(C)C)nc2n1 [PD-161570]
[4]
  Plate 3 (% conversion): 41.21%
  Plate 5 (% inhibition): -29.14%
  Plate 5 (% conversion): 46.23%

## Cc1c([N+](=O)[O-])cc2[nH]c(=O)c(=O)[nH]c2c1CN1CCCC1 [PD-161989]
  Plate 5 (% inhibition): 16.45%
  Plate 5 (% conversion): 30.72%

## CCN(CC)CCOc1ccc(Nc2ncc3cc(-c4c(Cl)cccc4Cl)c(=O)n(C)c3n2)cc1.O [PD-166285 hydrate]
  % conversion: 50.97%
20 µM
  % inhibition: -42.48%

## CCN(CC)CCOc1ccc(Nc2ncc3cc(-c4c(Cl)cccc4Cl)c(=O)n(C)c3n2)cc1 [PD-166285]
  Plate 5 (% inhibition): -31.63%
  Plate 5 (% conversion): 47.08%

## COc1cc(OC)cc(-c2cc3cnc(N)nc3nc2NC(=O)NC(C)(C)C)c1 [PD-166866]
[2]
  % conversion: 36.54%
  Plate 5 (% inhibition): -5.94%
  Plate 5 (% conversion): 38.34%

## Cc1cc(Nc2ncc3cc(-c4c(Cl)cccc4Cl)c(=O)n(C)c3n2)ccc1F [PD-180970]
[5]
  Plate 1 (% inhibition): -5.67%
[6]
  Plate 1 (% conversion): 37.77%
  Plate 5 (% inhibition): 46.58%
  Plate 5 (% conversion): 20.46%

## O=C(Nc1cccnc1)N1CCC(Cc2cccc(Oc3ccc(C(F)(F)F)cn3)c2)CC1 [PF 3845 hydrate]
  Plate 1 (% conversion): 45.36%
  Plate 1 (% inhibition): -28.26%

## O=C(Nc1cccnc1)N1CCC(Cc2cccc(Oc3ccc(C(F)(F)F)cn3)c2)CC1 [PF-3845]
  Plate 5 (% inhibition): -5.26%
  Plate 5 (% conversion): 38.10%

## CN(c1ccccc1CNc1nc(Nc2ccc3c(c2)CC(=O)N3)ncc1C(F)(F)F)S(C)(=O)=O.O [PF-431396 hydrate]
[5]
  Plate 1 (% inhibition): -15.66%
[6]
  Plate 1 (% conversion): 41.13%

## CN(c1ccccc1CNc1nc(Nc2ccc3c(c2)CC(=O)N3)ncc1C(F)(F)F)S(C)(=O)=O [PF-431396]
  Plate 5 (% inhibition): 35.16%
  Plate 5 (% conversion): 24.35%

## Cn1cc(-c2[nH]c3cc(NC(=O)[C@H](N)C4CCCCC4)cc4c3c2C=NNC4=O)cn1 [PF-477736]
  Plate 5 (% inhibition): -92.31%
  Plate 5 (% conversion): 67.73%

## CS(=O)(=O)c1cccc(CNc2nc(Nc3ccc4c(c3)CCC(=O)N4)ncc2C(F)(F)F)c1 [PF-573228]
  Plate 5 (% inhibition): 7.79%
  Plate 5 (% conversion): 33.66%

## C[C@@H]1CCN(C(=O)N2CCCC2)C[C@@H]1N(C)c1ncnc2[nH]ccc12 [PF-956980]
  Plate 5 (% inhibition): 16.28%
  Plate 5 (% conversion): 30.77%

## N#Cc1ccc([C@H]2CCCC[C@H]2O)cc1C(F)(F)F [PF-998425]
  Plate 5 (% conversion): 24.94%

## CCc1cncnc1N1CCN(Cc2nc3ccc(C(F)(F)F)cc3[nH]2)CC1 [PF-4708671]
[2]
  % conversion: 41.30%
  Plate 5 (% inhibition): 2.08%
  Plate 5 (% conversion): 35.61%

## Cl.O=C1NCCc2[nH]c(-c3ccncc3)cc21 [PHA 767491 hydrochloride]
[5]
  Plate 1 (% inhibition): -17.71%
[6]
  Plate 1 (% conversion): 41.82%

## O=C1NCCc2[nH]c(-c3ccncc3)cc21 [PHA 767491]
  Plate 5 (% inhibition): 26.12%
  Plate 5 (% conversion): 27.42%

## O=C(N[C@H]1CN2CCC1CC2)c1cc2ccoc2cn1 [PHA-543613]
[4]
  Plate 3 (% conversion): 37.15%
  Plate 5 (% inhibition): 12.80%
  Plate 5 (% conversion): 31.96%

## Cc1[nH]c(/C=C2\C(=O)Nc3ccc(S(=O)(=O)Cc4c(Cl)cccc4Cl)cc32)c(C)c1C(=O)N1CCC[C@@H]1CN1CCCC1 [PHA-665752]
  Plate 5 (% inhibition): -100.36%
  Plate 5 (% conversion): 70.47%

## CCC(C)N(C)C(=O)c1cc2ccccc2c(-c2ccccc2Cl)n1 (stereo not drawn) [PK 11195]
[5]
  Plate 1 (% inhibition): -10.48%
[6]
  Plate 1 (% conversion): 39.39%

## Nc1nc2c(ncn2CCOCP(=O)(O)O)c(=O)[nH]1 [PMEG hydrate]
[4]
  Plate 3 (% conversion): 30.37%

## Cc1nc(N=Nc2ccc(S(=O)(=O)O)cc2S(=O)(=O)O)c(COP(=O)(O)O)c(C=O)c1O [PPADS]
[1]
  % inhibition: 84.93%
[2]
  % conversion: 7.48%

## O=C(OCCN1CCOCC1)C1(c2ccccc2)CCCCC1 [PRE-084]
[4]
  Plate 3 (% conversion): 38.46%

## CC(=O)c1cccc(N[C@H]2[C@H](N)[C@@](NC(=O)N(C)C)([C@H](C)O)[C@@](C)(O)[C@@]2(O)COC(=O)c2c(C)cccc2O)c1 [Pactamycin]
  Plate 5 (% inhibition): 21.27%
  Plate 5 (% conversion): 29.07%

## CC(=O)O[C@H]1C[C@@H]2CC[C@@H]3[C@H](CC[C@@]4(C)[C@H]3C[C@H]([N+]3(C)CCCCC3)[C@@H]4OC(C)=O)[C@@]2(C)C[C@@H]1[N+]1(C)CCCCC1 [Pancuronium bromide]
  Plate 3 (% conversion): 37.93%

## C#CCN(C)Cc1ccccc1 [Pargyline hydrochloride]
[2]
  % conversion: 31.34%

## NC[C@@H]1O[C@H](O[C@H]2[C@@H](O)[C@H](O[C@@H]3[C@@H](O)[C@H](N)C[C@H](N)[C@H]3O[C@H]3O[C@H](CO)[C@@H](O)[C@H](O)[C@H]3N)O[C@@H]2CO)[C@H](N)[C@@H](O)[C@@H]1O [Paromomycin sulfate]
[2]
  % conversion: 37.25%
[3]
  inhibition at 20 µM: -2.28%

## N=C(N)c1ccc(OCCCCCOc2ccc(C(=N)N)cc2)cc1 [Pentamidine isethionate]
[4]
  Plate 3 (% conversion): 37.75%

## C[N+]1(CCCCC[N+]2(C)CCCC2)CCCC1.O=C([O-])C(O)C(O)C(=O)O.O=C([O-])C(O)C(O)C(=O)O [Pentolinium di[L(+)-tartrate]]
[4]
  Plate 3 (% conversion): 9.60%

## CCCN1C[C@H](CSC)C[C@@H]2c3cccc4[nH]cc(c34)C[C@H]21 [Pergolide methanesulfonate]
[2]
  % conversion: 40.48%
[3]
  inhibition at 20 µM: -11.8%

## OCCN1CCN(CCCN2c3ccccc3Sc3ccc(Cl)cc32)CC1 [Perphenazine]
[4]
  Plate 3 (% conversion): 48.99%

## NCC(CP(=O)(O)O)c1ccc(Cl)cc1 (stereo not drawn) [Phaclofen]
  % conversion: 34.58%
20 µM
  % inhibition: 5.54%

## NC(=Nc1ccccc1)NC(=O)c1nc(Cl)c(N)nc1N [Phenamil methanesulfonate]
[2]
  % conversion: 39.99%
[3]
  inhibition at 20 µM: -10.3%

## NNCCc1ccccc1 [Phenelzine sulfate]
  inhibition at 20 µM: -1.74%

## CN(C)CCC(c1ccccc1)c1ccccn1 (stereo not drawn) [Pheniramine maleate]
[2]
  % conversion: 37.25%
[3]
  inhibition at 20 µM: -2.28%

## CN1CC[C@@]2(C)c3cc(OC(=O)Nc4ccccc4)ccc3N(C)[C@@H]12 [Phenserine]
  Plate 2 (% conversion): 38.49%
read-out: Plate 2 (% inhibition)
  inhibition at 20 µM: -7.56%

## Cc1ccc(N(CC2=NCCN2)c2cccc(O)c2)cc1 [Phentolamine mesylate]
[2]
  % conversion: 38.87%
[3]
  inhibition at 20 µM: -7.04%

## CCCCC1C(=O)N(c2ccccc2)N(c2ccccc2)C1=O [Phenylbutazone]
[2]
  % conversion: 37.63%
[3]
  inhibition at 20 µM: -3.41%

## CNC[C@H](O)c1cccc(O)c1 [Phenylephrine hydrochloride]
[4]
  Plate 3 (% conversion): 35.74%

## O=C(CCc1ccc(O)cc1)c1c(O)cc(O)cc1O [Phloretin]
[2]
  % conversion: 29.69%

## CCCCCCCCCCCCCC(=O)O[C@@H]1[C@@H](C)[C@@]2(O)[C@@H](C=C(CO)C[C@]3(O)C(=O)C(C)=C[C@@H]23)[C@@H]2C(C)(C)[C@]12OC(C)=O [Phorbol 12-myristate 13-acetate]
  % conversion: 39.27%

## O=C(O)CP(=O)(O)O [Phosphonoacetic acid]
[2]
  % conversion: 17.53%
[3]
  inhibition at 20 µM: 55.5%

## CC(C)C[C@H](NP(=O)([O-])O[C@H]1O[C@H](C)[C@@H](O)[C@H](O)[C@@H]1O)C(=O)N[C@@H](Cc1c[nH]c2ccccc12)C(=O)[O-].[Na+].[Na+] [Phosphoramidon disodium]
  % conversion: 33.86%

## Oc1cc(O)cc(/C=C/c2ccc(O)c(O)c2)c1 [Piceatannol, reference compound]
AspH activity, fixed compound concentration 20 μM, initial LOPAC screen, 0.5%v/v DMSO, read-out: Inhibition at 20 µM [%]
  inhibition at 20 µM: 99.9%
[4]
  Plate 3 (% conversion): 2.48%

From article PMC7251097, “Aspartate/asparagine-β-hydroxylase: a high-throughput mass spectrometric assay for discovery of small molecule inhibitors” (Scientific Reports, 2020)
